Key:
Test in all cases: In vitro antimicrobial activity, agar dilution MIC
Type in all cases: cell-based
[1] = test system: Acinetobacter baumannii; conditions: test organism 26, Acinetobacter baumannii
Description: (§1) The activity of the compounds of the present invention was evaluated using an in vitro assay. Microorganisms were prepared from growth on agar media, in broth culture, or from thawed cryopreserved cultures. Fungal cultures were filtered to remove mycelial elements.
(§2) Using Mueller Hinton II Broth, 0.9% saline or other appropriate media, a suspension of each culture was prepared and adjusted to a turbidity equivalent to that of a 0.5 McFarland Standard. (Cultures adjusted to the 0.5 McFarland Standard generally contain approximately 1.0×10^8 CFU/mL). The adjusted suspension for each culture was diluted 1:10 in the appropriate media so that the inoculum concentration approximates 1.0×10^7 CFU/mL.
(§3) The antimicrobial agent to be tested was weighed and diluted with a volume of sterile distilled water calculated to yield the necessary starting concentration. Serial 1:2 dilutions of the antimicrobial agent in sterile distilled water were prepared (approximately 10-12 test concentrations comprise a reasonable experimental range). A known amount of each antimicrobial dilution was combined with an aliquot of agar medium calculated to yield the desired final antimicrobial test concentration and dispensed onto plates.
(§4) The amount of antimicrobial agent to be weighed was determined using the following equation: […]
(§5) Antimicrobial stock solutions were prepared at concentrations 5-10 times the highest concentration to be tested (routinely 1024 μg/mL). […] The stock solution was diluted to appropriate concentration using sterile water to form a working solution. The working solution was diluted two-fold, in sterile water, until the desired concentration is obtained.
(§6) Mueller Hinton II agar was prepared as described by the manufacturer. Mueller Hinton II agar may be supplemented with 5% defibrinated sheep blood for testing streptococci. Agar was added to the serially diluted antimicrobial solution in each container. The solutions were mixed thoroughly and poured into petri dishes (about 25 mL/plate). The pH of the agar at 25° C. should be between 7.2 and 7.4.
(§7) At least one inocula control plate was inoculated (agar medium without antimicrobial agent) from each seed plate before inoculating test plates. Test plates were inoculated starting at the lowest concentration and proceeding to the highest concentration. After all test plates were inoculated, an additional control plate (agar medium without antimicrobial agent) was inoculated. The plates were incubated in a non-CO2 incubator (or CO2 incubator depending on growth requirements); 18-24 hours at 32-35° C. was sufficient for most organisms.
(§8) All inoculation points on the agar surface were examined for the presence of growth as compared to the inoculum control plates. The results were summarized and use to determine Minimal Inhibitory Concentrations (MICs): The MIC is the lowest concentration of the antimicrobial agent which prevents visible growth of the organism (negative score).

[2] = test system: Acinetobacter junii
Description: as §1, §2, §3, §4, §5, §6, §7, §8

[3] = test system: Corynebacterium amycolatum
Description: as §1, §2, §3, §4, §5, §6, §7, §8

[4] = test system: Enterobacter hormaechei; conditions: test organism 31, Enterobacter hormaechei
Description: as §1, §2, §3, §4, §5, §6, §7, §8

[5] = test system: Enterococcus faecalis
Description: as §1, §2, §3, §4, §5, §6, §7, §8

[6] = test system: Escherichia coli
Description: as §1, §2, §3, §4, §5, §6, §7, §8

[7] = test system: MRSA
Description: as §1, §2, §3, §4, §5, §6, §7, §8

[8] = test system: MRSE
Description: as §1, §2, §3, §4, §5, §6, §7, §8

[9] = test system: MSSA; conditions: test organism 6, MSSA
Description: as §1, §2, §3, §4, §5, §6, §7, §8

[10] = test system: Morganella morganii
Description: as §1, §2, §3, §4, §5, §6, §7, §8

[11] = test system: Pseudomonas aeruginosa
Description: as §1, §2, §3, §4, §5, §6, §7, §8

[12] = test system: Serratia marcescens
Description: as §1, §2, §3, §4, §5, §6, §7, §8

[13] = test system: Staphylococcus aureus
Description: as §1, §2, §3, §4, §5, §6, §7, §8

[14] = test system: Staphylococcus epidermidis
Description: as §1, §2, §3, §4, §5, §6, §7, §8

[15] = test system: Staphylococcus haemolyticus
Description: as §1, §2, §3, §4, §5, §6, §7, §8

[16] = test system: Stenotrophomonas maltophilia
Description: as §1, §2, §3, §4, §5, §6, §7, §8

[17] = test system: Streptococcus mitis
Description: as §1, §2, §3, §4, §5, §6, §7, §8

[18] = test system: Streptococcus pneumoniae
Description: as §1, §2, §3, §4, §5, §6, §7, §8

Nc1c(F)c(N2CC3CCCNC3C2)c(F)c2c1c(=O)c(C(=O)O)cn2C1CC1 [Compound 3 (S,S)]
Minimal Inhibitory Concentration (MIC) [1]: ≦0.25 | Minimal Inhibitory Concentration (MIC) ([2]; test organism 27, Acinetobacter junii): ≦0.25 | Minimal Inhibitory Concentration (MIC) ([2]; test organism 28, Acinetobacter junii): 0.06 | Minimal Inhibitory Concentration (MIC) ([2]; test organism 29, Acinetobacter junii): >4 | Minimal Inhibitory Concentration (MIC) ([3]; test organism 24, Corynebacterium amycolatum): 0.5 | Minimal Inhibitory Concentration (MIC) ([3]; test organism 25, Corynebacterium amycolatum): >4 | Minimal Inhibitory Concentration (MIC) [4]: 4 | Minimal Inhibitory Concentration (MIC) ([5]; test organism 15, Enterococcus faecalis): 0.125 | Minimal Inhibitory Concentration (MIC) ([5]; test organism 16, Enterococcus faecalis): 0.5 | Minimal Inhibitory Concentration (MIC) ([5]; test organism 17, Enterococcus faecalis): >4 | Minimal Inhibitory Concentration (MIC) ([5]; test organism 18, Enterococcus faecalis): >2 | Minimal Inhibitory Concentration (MIC) ([6]; test organism 32, Escherichia coli): 0.06 | Minimal Inhibitory Concentration (MIC) ([6]; test organism 33, Escherichia coli): ≦0.25 | Minimal Inhibitory Concentration (MIC) ([6]; test organism 34, Escherichia coli): >4 | Minimal Inhibitory Concentration (MIC) ([7]; test organism 3, MRSA): 1 | Minimal Inhibitory Concentration (MIC) ([7]; test organism 4, MRSA): 2 | Minimal Inhibitory Concentration (MIC) ([7]; test organism 5, MRSA): >2 | Minimal Inhibitory Concentration (MIC) ([8]; test organism 9, MRSE): >2 | Minimal Inhibitory Concentration (MIC) ([8]; test organism 10, MRSE): >2 | Minimal Inhibitory Concentration (MIC) ([8]; test organism 11, MRSE): >4 | Minimal Inhibitory Concentration (MIC) [9]: 4 | Minimal Inhibitory Concentration (MIC) ([10]; test organism 35, Morganella morganii): 0.125 | Minimal Inhibitory Concentration (MIC) ([10]; test organism 36, Morganella morganii): 1 | Minimal Inhibitory Concentration (MIC) ([11]; test organism 37, Pseudomonas aeruginosa): >4 | Minimal Inhibitory Concentration (MIC) ([11]; test organism 38, Pseudomonas aeruginosa): 0.5 | Minimal Inhibitory Concentration (MIC) ([12]; test organism 39, Serratia marcescens): 0.5 | Minimal Inhibitory Concentration (MIC) ([12]; test organism 40, Serratia marcescens): 1 | Minimal Inhibitory Concentration (MIC) ([13]; test organism 1, Staphylococcus aureus): ≦0.03 | Minimal Inhibitory Concentration (MIC) ([13]; test organism 2, Staphylococcus aureus): ≦0.25 | Minimal Inhibitory Concentration (MIC) ([14]; test organism 7, Staphylococcus epidermidis): 0.5 | Minimal Inhibitory Concentration (MIC) ([14]; test organism 8, Staphylococcus epidermidis): 0.5 | Minimal Inhibitory Concentration (MIC) ([15]; test organism 12, Staphylococcus haemolyticus): 0.125 | Minimal Inhibitory Concentration (MIC) ([15]; test organism 13, Staphylococcus haemolyticus): 1 | Minimal Inhibitory Concentration (MIC) ([15]; test organism 14, Staphylococcus haemolyticus): >4 | Minimal Inhibitory Concentration (MIC) ([16]; test organism 41, Stenotrophomonas maltophilia): 2 | Minimal Inhibitory Concentration (MIC) ([16]; test organism 42, Stenotrophomonas maltophilia): 0.125 | Minimal Inhibitory Concentration (MIC) ([17]; test organism 21, Streptococcus mitis): ≦0.25 | Minimal Inhibitory Concentration (MIC) ([17]; test organism 22, Streptococcus mitis): 0.125 | Minimal Inhibitory Concentration (MIC) ([17]; test organism 23, Streptococcus mitis): 1 | Minimal Inhibitory Concentration (MIC) ([18]; test organism 19, Streptococcus pneumoniae): 0.125 | Minimal Inhibitory Concentration (MIC) ([18]; test organism 20, Streptococcus pneumoniae): ≦0.25

Source: patent US20120108557A1, “FLUOROQUINOLONE DERIVATIVES FOR OPHTHALMIC APPLICATIONS” (ALCON RESEARCH, LTD., priority 2008, published 2012)
